Reference: US11939348B2, “Compositions comprising a phosphorus derivative of nicotinamide riboside and methods for modulation of nicotinamide adenine dinucleotide” (Metro International Biotech, LLC, priority 2019, dated 2024)

Tested on: AML12 cells
Assay: NAD(H) normalized to total protein in treated AML12 cells compared to untreated cells
Type: cell-based
Settings: compound at 2 mM, 1 mM and 500 micromolar, untreated cells normalized to 1.0, FIG. 1
From the text: Compound A is Formula I, n=2. Compound B is Formula I, n=1.

SMILES | NAD(H) normalized to total protein in treated AML12 cells compared to untreated cells
NC(=O)c1ccc[n+]([C@@H]2O[C@H](COP(=O)([O-])OP(=O)([O-])OCC3O[C@@H]([n+]4cccc(C(N)=O)c4)[C@H](O)[C@@H]3O)[C@@H](O)[C@H]2O)c1 (some centres unmarked) [Compound A] | possess NAD(H) boosting activity
NC(=O)c1ccc[n+]([C@@H]2O[C@H](COP(=O)(O)OC[C@H]3O[C@@H]([n+]4cccc(C(N)=O)c4)[C@H](O)[C@@H]3O)[C@@H](O)[C@H]2O)c1 [Compound B, bis(((2R,3S,4R,5R)-5-(3-carbamoylpyridin-1-ium-1-yl)-3,4-dihydroxytetrahydrofuran-2-yl)methyl) phosphate acetate] | possess NAD(H) boosting activity
